# Species: Rattus norvegicus
# Assay: DrugMatrix - Regimen: Daily Repeat
# Assay type: toxicity, organism-based, Sprague-Dawley
# Design: regimen Daily Repeat, gender Male, age 6-8 weeks
# Details: in vivo, po, 200 mg/kg, route oral GAVAGE, dose level Low, vehicle .5 % CMC; for ABSOLUTE BASOPHIL / ABSOLUTE EOSINOPHIL / ABSOLUTE LYMPHOCYTE / ABSOLUTE MONOCYTE / ABSOLUTE SEGMENTED NEUTROPHIL / BASOPHIL / EOSINOPHIL / ERYTHROCYTE COUNT / HEMATOCRIT / HEMOGLOBIN / LEUKOCYTE COUNT / LYMPHOCYTE / MEAN CORPUSCULAR HEMOGLOBIN / MEAN CORPUSCULAR HEMOGLOBIN CONCENTRATION / MEAN CORPUSCULAR VOLUME / MONOCYTE / NEUTROPHIL / NUCLEATED RED BLOOD CELLS / PLATELET COUNT: tissue Blood; for ALANINE AMINOTRANSFERASE / ALBUMIN / ALKALINE PHOSPHATASE / ASPARTATE AMINOTRANSFERASE / BLOOD UREA NITROGEN / CARBON DIOXIDE / CHLORIDE / CHOLESTEROL / CREATINE PHOSPHOKINASE / CREATININE / GLUCOSE / LACTATE DEHYDROGENASE / LIPASE / PHOSPHORUS / POTASSIUM / SODIUM / TOTAL BILIRUBIN / TOTAL PROTEIN / URIC ACID: tissue Plasma
smiles,measurement,setting,value
COc1cc(C(=O)NC2CCCNC2)cc(OC)c1OC (stereo unspecified) [TROXIPIDE],ABSOLUTE BASOPHIL,"72 h, time 3 day",0 CELLS/uL
same,ABSOLUTE EOSINOPHIL,"72 h, time 3 day",136.33 CELLS/uL
same,ABSOLUTE LYMPHOCYTE,"72 h, time 3 day",11684 CELLS/uL
same,ABSOLUTE MONOCYTE,"72 h, time 3 day",203.67 CELLS/uL
same,ABSOLUTE SEGMENTED NEUTROPHIL,"72 h, time 3 day",809.33 CELLS/uL
same,BASOPHIL,"72 h, time 3 day",0%
same,EOSINOPHIL,"72 h, time 3 day",1%
same,ERYTHROCYTE COUNT,"72 h, time 3 day",5.48 x10E6/uL
same,HEMATOCRIT,"72 h, time 3 day",34.2%
same,HEMOGLOBIN,"72 h, time 3 day",12.97 G/DL
same,LEUKOCYTE COUNT,"72 h, time 3 day",12.83 x10E3/uL
same,LYMPHOCYTE,"72 h, time 3 day",91%
same,MEAN CORPUSCULAR HEMOGLOBIN,"72 h, time 3 day",23.67 pg
same,MEAN CORPUSCULAR HEMOGLOBIN CONCENTRATION,"72 h, time 3 day",37.9 G/DL
same,MEAN CORPUSCULAR VOLUME,"72 h, time 3 day",62.43 fL
same,MONOCYTE,"72 h, time 3 day",1.67%
same,NEUTROPHIL,"72 h, time 3 day",6.33%
same,NUCLEATED RED BLOOD CELLS,"72 h, time 3 day",0.33 /100WBC
same,PLATELET COUNT,"72 h, time 3 day",1247.33 x10E3/uL
same,ALANINE AMINOTRANSFERASE,"72 h, time 3 day",38.67 u/L
same,ALBUMIN,"72 h, time 3 day",4.37 G/DL
same,ALKALINE PHOSPHATASE,"72 h, time 3 day",413.67 u/L
same,ASPARTATE AMINOTRANSFERASE,"72 h, time 3 day",80 u/L
same,BLOOD UREA NITROGEN,"72 h, time 3 day",14 mg/dL
same,CARBON DIOXIDE,"72 h, time 3 day",26.33 mmol/L
same,CHLORIDE,"72 h, time 3 day",106 MEQ/L
same,CHOLESTEROL,"72 h, time 3 day",67 mg/dL
same,CREATINE PHOSPHOKINASE,"72 h, time 3 day",457.67 u/L
same,CREATININE,"72 h, time 3 day",0.16 mg/dL
same,GLUCOSE,"72 h, time 3 day",165 mg/dL
same,LACTATE DEHYDROGENASE,"72 h, time 3 day",90.67 u/L
same,LIPASE,"72 h, time 3 day",9 u/L
same,PHOSPHORUS,"72 h, time 3 day",13.6 mg/dL
same,POTASSIUM,"72 h, time 3 day",6.02 MEQ/L
same,SODIUM,"72 h, time 3 day",146.67 MEQ/L
same,TOTAL BILIRUBIN,"72 h, time 3 day",0.23 mg/dL
same,TOTAL PROTEIN,"72 h, time 3 day",5.87 G/DL
same,URIC ACID,"72 h, time 3 day",1.57 mg/dL
same,ABSOLUTE BASOPHIL,"120 h, time 5 day",0 CELLS/uL
same,ABSOLUTE EOSINOPHIL,"120 h, time 5 day",142.33 CELLS/uL
same,ABSOLUTE LYMPHOCYTE,"120 h, time 5 day",13091.33 CELLS/uL
same,ABSOLUTE MONOCYTE,"120 h, time 5 day",94.33 CELLS/uL
same,ABSOLUTE SEGMENTED NEUTROPHIL,"120 h, time 5 day",905.33 CELLS/uL
same,BASOPHIL,"120 h, time 5 day",0%
same,EOSINOPHIL,"120 h, time 5 day",1%
same,ERYTHROCYTE COUNT,"120 h, time 5 day",5.5 x10E6/uL
same,HEMATOCRIT,"120 h, time 5 day",35.17%
same,HEMOGLOBIN,"120 h, time 5 day",13.37 G/DL
same,LEUKOCYTE COUNT,"120 h, time 5 day",14.23 x10E3/uL
same,LYMPHOCYTE,"120 h, time 5 day",92%
same,MEAN CORPUSCULAR HEMOGLOBIN,"120 h, time 5 day",24.33 pg
same,MEAN CORPUSCULAR HEMOGLOBIN CONCENTRATION,"120 h, time 5 day",38.03 G/DL
same,MEAN CORPUSCULAR VOLUME,"120 h, time 5 day",63.97 fL
same,MONOCYTE,"120 h, time 5 day",0.67%
same,NEUTROPHIL,"120 h, time 5 day",6.33%
same,NUCLEATED RED BLOOD CELLS,"120 h, time 5 day",0 /100WBC
same,PLATELET COUNT,"120 h, time 5 day",1300.67 x10E3/uL
same,ALANINE AMINOTRANSFERASE,"120 h, time 5 day",40.33 u/L
same,ALBUMIN,"120 h, time 5 day",4.33 G/DL
same,ALKALINE PHOSPHATASE,"120 h, time 5 day",383 u/L
same,ASPARTATE AMINOTRANSFERASE,"120 h, time 5 day",84.33 u/L
same,BLOOD UREA NITROGEN,"120 h, time 5 day",16.67 mg/dL
same,CARBON DIOXIDE,"120 h, time 5 day",24.67 mmol/L
same,CHLORIDE,"120 h, time 5 day",109 MEQ/L
same,CHOLESTEROL,"120 h, time 5 day",69 mg/dL
same,CREATINE PHOSPHOKINASE,"120 h, time 5 day",241.67 u/L
same,CREATININE,"120 h, time 5 day",0.18 mg/dL
same,GLUCOSE,"120 h, time 5 day",177.67 mg/dL
same,LACTATE DEHYDROGENASE,"120 h, time 5 day",230 u/L
same,LIPASE,"120 h, time 5 day",9 u/L
same,PHOSPHORUS,"120 h, time 5 day",14 mg/dL
same,POTASSIUM,"120 h, time 5 day",5.49 MEQ/L
same,SODIUM,"120 h, time 5 day",147.33 MEQ/L
same,TOTAL BILIRUBIN,"120 h, time 5 day",0.23 mg/dL
same,TOTAL PROTEIN,"120 h, time 5 day",6.57 G/DL
same,URIC ACID,"120 h, time 5 day",1.8 mg/dL
